Experimental data published in patent publication US4851426A, “Ethoxycarbonyloxy ethyl esters of non-steroidal anti-inflammatory carboxylic acids and pharmaceutical compositions thereof” (Teva Pharmaceutical Industries, Ltd., priority 1982, dated 1989).

Columns and labels:
[1] = tested on: stomach ulcers in rats; experiment: Ulcerogenicity; assay type: in vivo, rat; parameters: key to UI max: ulcer index = mean sum of individual lesion lengths per rat; conditions: for UI50: 50% of ulcerogenic index max, + on value: dose response curve acquired bell shape
Experimental: (§1) Methods: Six groups of 10 female Charles River rats weighing 170-230 g were used for each drug. […] Drugs were freshly suspended in water with 1% carboxymethyl cellulose and administered by stomach tube. Rats treated were sacrificed 5 hours after oral gavage. Ulcers were evaluated under a magnifying lens, after the stomach had been dissected out, opened along the lesser curvature and rinsed.
(§2) Ulcer index (UI) for each group was calculated as the mean sum of the lengths of the individual lesions in each rat.
(§3) Apparent maximal ulcerogenicity was calculated from regression analysis of the ascending parts of each dose-response curve.

[2] = Ulcerogenicity; assay type: in vivo, rat; parameters: key to UI max: ulcer index = mean sum of individual lesion lengths per rat; conditions: rat, in vivo; dose causing UI50; female rats, oral, 5 hours; read-out: UD50
Experimental: as §1, §2, §3

[3] = tested on: inflamed foot of the rat (brewers' yeast); experiment: Analgesic action, pressure reaction threshold of yeast-inflamed foot (Basile-Analgesy-Meter); assay type: in vivo; parameters: % of control 1 hr / % of control 3 hrs: concentration or dose not given beside the values; conditions: for % effect vs. parent compound 1 hr / % effect vs. parent compound 3 hrs: relative to parent; for % of control 1 hr / % of control 3 hrs: pressure reaction threshold, rat, oral
Description: Male rats, weighing 95-140 g, 10 rats per experimental group. The major reason for selecting rats of this weight range is the ease in handling smaller sized animals in this particular test. Animals are fed and provided drinking water ad libitium until time of testing. […] (Note: Brewers' yeast, locally obtainable from "Abir" breweries, may be kept under refrigeration for a period of at least 6 months). […] This instrument is basically a device which […] force that increases at a constant rate (a certain number of grams per second). […] Note: In case weight discs are being used to increase the force of pressure applied, the same number of discs should be employed throughout the entire experiment for both experimental and control animals. For detailed operation of the analgesy-meter reference to the specific instructions of the instrument given in the appendix. a. […] The differences in the various Mean Group Values between treatment and control group are analyzed for statistical significance using the Student t-Test.

[4] = hydrolysis in aqueous acidic medium (simulated gastro-intestinal juices), HPLC; assay type: physicochemical; conditions: for Ester (%): 0 min; for Ester (%), in words: same acidic conditions, 37° C.; for stability of ECOE ester against hydrolysis in acidic medium: acidic medium (simulated gastric juice)
Experimental: The rates of hydrolysis of 2-(acetyloxy)benzoic acid (Aspirin) ethoxy carbonyloxy ethyl ester to salicylethoxy carbonyloxy ethyl ester in the aqueous acidic medium (simulated gastro-intestinal juices) were determined by dissolving the ester to a pre-determined concentration in the acidic medium containing THF: aqueous conc. HCl=1:1 and the rate of hydrolysis at 37° C. was measured by the HPLC method.
The rates of hydrolysis of acetyl salicylic acid ethoxy carbonyloxy ethyl ester to salicyl-ethoxy carbonyloxy ethyl ester in aqueous acidic system (simulated gastrointestinal juices) are given in the following table:
Ethoxy carbonyloxy ethyl ester of Aspirin was dissolved to a predetermined concentration in an acidic aqueous medium (simulated gastric juice)--mixture THF; aqueous conc. HCl (1:1) and the rate of hydrolysis at 37° C. was measured by HPLC method.

[5] = Bioavailability-pharmacokinetic profile in rats (plasma salicylate, fluorometry); assay type: in vivo; conditions: in words, rat
Experimental: Methods: Female Charles River rats weighing 200-250 g were used. Rates were starved for a 24 hour period prior to each experiment, while water was allowed ad libitum. […] Plasma salicylate concentrations were measured by fluorometry according to Frey and El-Sayed (Arch. Int. Pharmacodyn. 230: 300, 1977). […] Statistical evaluation was effected by (unpaired) Student t test.

[6] = dose causing max ulcerogenic index
[7] = dose-response of ulcer index, female rats, oral, 5 hours
[8] = THF: aqueous conc. HCl 1:1, 37° C.

| Structure (SMILES) | UD max ([1]; rat, in vivo) [mmol/kg] | UI max ([1]; rat, in vivo) | Slope ([1]; rat, in vivo, po) [Uxkg/mmole] | UI50 [1] | UD max [1, 6] [mmol/kg] | Slope [1, 7] [Uxkg/mmole] | UI max ([1]; ulcerogenic index max) | TD50 at 5 h [2] [µmol/kg] | % effect vs. parent compound 1 hr [3] [%] | % effect vs. parent compound 3 hrs [3] [%] | % of control 1 hr [3] [%] | % of control 3 hrs [3] [%] | also measured |
| --- | --- | --- | --- | --- | --- | --- | --- | --- | --- | --- | --- | --- | --- |
| O=C(O)Cc1ccccc1Nc1c(Cl)cccc1Cl [Diclofenac, reference compound] | 0.6 | 61.8 | 31.1 ± 8.7 | – | – | – | – | – | – | – | – | – | – |
| CCOC(=O)OC(C)OC(=O)C(C)c1ccc2cc(OC)ccc2c1 (single isomer, unassigned; (+)) [Naproxen-ECOE ester, (+)-6-Methoxy-α-methyl-2-naphthaleneacetic acid 1'-ethoxycarbonyloxy ethyl ester] | – | – | – | 32.5 | 1.0 | 63.5 ± 0.59 | 65.0 | 590 | 108 | 91 | 125 | 121 | – |
| CCOC(=O)OC(C)OC(=O)C(C)c1ccc(CC(C)C)cc1 (stereo not drawn) [Ibuprofen-ECOE ester, α-Methyl-4-(2-methylpropyl)benzene--acetic acid 1'-ethoxycarbonyloxy ethyl ester] | – | – | – | 13.0 | 0.7 | 36.7 ± 8.5 | 26.0 | 300 | 115 | 89 | 176 | 129 | – |
| COc1ccc2c(c1)c(CC(=O)O)c(C)n2C(=O)c1ccc(Cl)cc1 [Indomethacin, reference compound] | 0.32 | 60 | 50 | – | – | – | – | – | – | – | 128 | 146 | – |
| COc1ccc2cc([C@H](C)C(=O)O)ccc2c1 [Naproxen, reference compound] | – | – | – | 31.0 | 2.0 | 41.0 ± 14.2 | 62.0 | – | – | – | 116 | 133 | – |
| CCOC(=O)OC(C)OC(=O)c1ccccc1O (stereo not shown) [1'-ethoxy carbonyloxy ethyl ester of salicyclic acid] | – | – | – | – | – | – | – | – | – | – | – | – | Ester (%) [4, 8]: 100%; Ester (%), in words ([4]; 150 min): unchanged; Ester (%), in words ([4]; 180 min): unchanged; Ester (%), in words ([4]; 210 min): unchanged; Ester (%), in words ([4]; 240 min): unchanged; stability of ECOE ester against hydrolysis in acidic medium ([4]; in words, listed as 1'-ethoxycarbonyloxy ethyl ester of salicylic acid): stable in acidic medium; stability of ECOE ester against hydrolysis in acidic medium ([4]; in words, listed as Salicyl 2-ethoxy carbonyloxy ethyl ester): stable; stability of ECOE ester against hydrolysis in acidic medium ([4]; in words, listed as salicyclic acid 2-ethoxycarbonyloxy ethyl ester): stable |
| CCOC(=O)OC(C)OC(=O)c1ccccc1OC(C)=O (stereo not shown) [Aspirin-ECOE ester, 1'-ethoxy carbonyloxy ethyl ester of 2-(acetyloxy)benzoic acid (Aspirin)] | – | – | – | 20.5 | 0.4 | 13.7 ± 6.5 | 40.9 | 20 | 141 | 150 | 178 | 148 | Ester (%) [4, 8]: 100%; remaining at 0.5 h ([4]; 30 min, THF: aqueous conc. HCl 1:1, 37° C., read-out: Ester (%)): 96%; remaining at 1 h ([4]; 60 min, THF: aqueous conc. HCl 1:1, 37° C., read-out: Ester (%)): 92%; remaining at 1.5 h ([4]; 90 min, THF: aqueous conc. HCl 1:1, 37° C., read-out: Ester (%)): 90%; remaining at 2 h ([4]; 120 min, THF: aqueous conc. HCl 1:1, 37° C., read-out: Ester (%)): 90%; remaining at 2.5 h ([4]; 150 min, THF: aqueous conc. HCl 1:1, 37° C., read-out: Ester (%)): 84%; remaining at 3 h ([4]; 180 min, THF: aqueous conc. HCl 1:1, 37° C., read-out: Ester (%)): 82%; remaining at 3.5 h ([4]; 210 min, THF: aqueous conc. HCl 1:1, 37° C., read-out: Ester (%)): 76%; hydrolysis of acetyl group in acidic medium ([4]; in words, acetyl group, simulated gastric juices): readily hydrolysed off; stability of ECOE ester against hydrolysis in acidic medium ([4]; in words): not readily hydrolysed off; bioavailability of salicylate ([5]; oral 0.4 mmole/kg): seems complete; rate of appearance of salicylate ([5]; oral, vs plain aspirin): seems slower; ulcerogenicity compared with parent ([1]; in words, vs parent acid): much smaller ulcerogenic liability |
| CCOC(=O)OC(C)OC(=O)Cc1c(C)n(C(=O)c2ccc(Cl)cc2)c2ccc(OC)cc12 (stereo not shown) [Indomethacin-ECOE ester, 1-(p-Chlorobenzoyl)-5-methoxy-2-methylindole-3-acetic acid 1'-ethoxycarbonyloxy ethyl ester] | – | – | – | – | 0.32 | 34 ± 13.8 | 42.0 | – | 102 | 105 | 130 | 153 | – |
| CC(C)Cc1ccc(C(C)C(=O)O)cc1 (stereo not shown) [Ibuprofen, reference compound] | 2.8 | 52.0 | 38.1 ± 8.0 | – | – | – | – | 325 | – | – | 152 | 145 | – |
| CCOC(=O)OC(C)OC(=O)Cc1ccccc1Nc1c(Cl)cccc1Cl (stereo not shown) [Diclofenac-ECOE ester] | – | – | – | – | 0.6 | 21.1 | 34.9 | – | 86 | 82 | 106 | 110 | – |
| CC(=O)Oc1ccccc1C(=O)O [Aspirin, 2-(acetyloxy)benzoic acid, reference compound] | 0.4 | 92.6 | 33.7 ± 11.5 | – | – | – | – | 20 | – | – | 126 | 100 | – |
